Measurements: publication PMC7691349, “Roles of two glutathione S-transferases in the final step of the β-aryl ether cleavage pathway in Sphingobium sp. strain SYK-6” (Scientific Reports, 2020)

Tests used:
[1] = molecular target: T1, LigE (Sphingobium sp. SYK-6, UniProt P27457); assay: chiral HPLC of MPHPV conversion; assay type: biochemical; settings: 400 µM racemic MPHPV; 5 mM GSH; 50 mM Tris-HCl pH 7.5; 30 °C; 60 min
T1 construct: full length in pET-16b (pET08660), His-tagged, E. coli BL21(DE3), His SpinTrap purified
T1 sequence (P27457 1-281 limits assumed): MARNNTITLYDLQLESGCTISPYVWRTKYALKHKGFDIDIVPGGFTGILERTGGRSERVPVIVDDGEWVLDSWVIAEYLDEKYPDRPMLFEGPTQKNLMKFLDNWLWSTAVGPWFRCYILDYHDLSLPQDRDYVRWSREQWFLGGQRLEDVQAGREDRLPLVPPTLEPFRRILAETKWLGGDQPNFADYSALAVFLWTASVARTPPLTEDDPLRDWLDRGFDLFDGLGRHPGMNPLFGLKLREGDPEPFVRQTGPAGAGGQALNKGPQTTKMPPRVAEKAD

[2] = molecular target: T2, LigF (Sphingobium sp. SYK-6, UniProt P30347); assay: chiral HPLC of MPHPV conversion; assay type: biochemical; settings: 400 µM racemic MPHPV; 5 mM GSH; 50 mM Tris-HCl pH 7.5; 30 °C; 60 min
T2 construct: full length in pET-16b (pET08650), His-tagged, E. coli BL21(DE3), His SpinTrap purified
T2 sequence (P30347 1-257): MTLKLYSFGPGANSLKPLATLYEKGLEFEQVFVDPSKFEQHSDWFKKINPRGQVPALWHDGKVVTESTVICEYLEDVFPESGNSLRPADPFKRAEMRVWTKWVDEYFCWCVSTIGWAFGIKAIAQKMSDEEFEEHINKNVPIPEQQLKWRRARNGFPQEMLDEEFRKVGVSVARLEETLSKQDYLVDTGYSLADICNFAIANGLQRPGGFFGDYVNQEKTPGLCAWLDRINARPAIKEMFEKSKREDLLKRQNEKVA

| Structure (SMILES) | chiral HPLC of MPHPV conversion [1] | chiral HPLC of MPHPV conversion [2] |
| --- | --- | --- |
| COc1cc(C(=O)[C@@H](CO)Oc2ccccc2OC)ccc1O [(βR)-MPHPV] | LigF and LigE completely converted (βS)-MPHPV and (βR)-MPHPV, respectively |  |
| COc1cc(C(=O)[C@H](CO)Oc2ccccc2OC)ccc1O [(βS)-MPHPV] |  | LigF and LigE completely converted (βS)-MPHPV and (βR)-MPHPV, respectively |
